Measured values published in US20150018305A1, “SIRTUIN INDUCER, TISSUE REPAIRING AGENT, HEPATOCYTE GROWTH FACTOR INDUCER, TISSUE HOMEOSTASIS MAINTENANCE AGENT, AND TLR4 AGONIST, HAVING HYALURONIC ACID FRAGMENT AS ACTIVE INGREDIENT” (HYALURONAN RESEARCH INSTITUTE, INC., priority 2012, published 2015).

Experiments:
[1] = tested on: human epidermal keratinocytes; test: Change in size of human epidermal keratinocytes, image analysis (Test Example 3); format: cell-based; conditions: surface area on the image of a single cell; 0.01 ng/ml, 24 hours
Method: A test of sirtuin induction in human epidermal keratinocytes was conducted in the same manner as in Test Example 1.
The change in cell size was analyzed using image analysis software (“Image J”). The 5 results in Table 2 are graphed in FIG. 5. The pixel count in the results indicates surface area on the image of a single cell, with higher values considered to indicate larger cells.

[2] = tested on: human sirtuin proteins (SIRT1); test: Sirtuin induction in human epidermal keratinocytes, anti human SIRT1 antibody staining (Test Example 1); format: cell-based; conditions: 24 hours
Method: Human epidermal keratinocytes (normal human keratinocytes from a person) were cultured and prepared. Following culture of the human keratinocytes in a prolonged culture growth medium (EpiLife-KG2) at 37° C. under 5% CO2, the cells were recovered by trypsin treatment. The cells were then inoculated into a 96-well plate (100 μL per well) and cultured overnight. Following completion of culture, the culture broth from each well was transferred to a culture medium (keratinocyte SFM made by Gibco) to which no hyaluronic acid fragments were added, or to the same culture medium to which a hyaluronic acid fragment (4mer) was added to a final concentration of 0.01 ng/ml, 0.1 ng/ml, 1.0 ng/ml, or 10 ng/ml, and cultured for 24 hours.
After 24 hours had passed, the cells in each well were stained with the anti human SIRT1 antibody. The anti human SIRT1 antibody is an antibody that recognizes and stains human sirtuin proteins. The stained cells were observed under a microscope (made by Nikon), taking photographs of cell morphology and stained images of cells.

CC(=O)N[C@H]1[C@H](O[C@H]2[C@H](O)[C@@H](O)[C@H](O[C@H]3[C@H](O)[C@@H](CO)OC(O)[C@@H]3NC(C)=O)O[C@@H]2C(=O)O)O[C@H](CO)[C@@H](O)[C@@H]1O[C@@H]1O[C@H](C(=O)O)[C@@H](O)[C@H](O)[C@H]1O (some centres unmarked) [4mer, GlcA(-GlcNAc-GlcA)1-GlcNAc]
Average pixel count [1]: 124515.9333 | Average staining intensity ([2]; 0.01 ng/ml): 6.33 | Average staining intensity ([2]; 0.1 ng/ml): 6.35 | Average staining intensity ([2]; 1.0 ng/ml): 6.52 | Average staining intensity ([2]; 10 ng/ml): 6.54
